From patent US20220125765A1, “PHARMACEUTICAL COMBINATIONS COMPRISING MEBENDAZOLE AND A STRONG OR MODERATE CYP1A2 INHIBITOR” (ZEPHAPHARM LTD, priority 2019, published 2022)

Tests used:
[1] = Stability in human liver microsomes without and with cimetidine or furafylline (Example 4); format: in vitro ADME; conditions: for half-life at 1 μM / microsomal CLint at 1 μM: human, liver microsomes; for half-life at 1 μM / microsomal CLint at 1 μM / CLint: substrate 1 μM
Description: A minus cofactor control incubation was included for each compound tested where 0.1 M phosphate buffer pH 7.4 was added instead of NADPH (minus NADPH). […] The samples were analysed for mebendazole or phenacetin using LC-MS/MS.
A minus cofactor control incubation was included for each compound tested where 0.1 M phosphate buffer pH 7.4 was added instead of cofactor (minus NADPH). […] The samples were analysed for mebendazole or phenacetin using LC-MS/MS.

[2] = test system: human cryopreserved hepatocytes; assay: Stability in human cryopreserved hepatocytes without and with cimetidine or furafylline (Example 5); format: in vitro ADME; conditions: human hepatocytes, largest effect over concentrations tested
Description: (§1) The final incubation volume was 500 μL. Two control compounds were included with each species, alongside appropriate vehicle control.
(§2) The samples were analysed for mebendazole or ethoxycoumarin using LC-MS/MS.
(§3) The final incubation volume was 500 μL.
(§4) A positive control compound, ethoxycoumarin, for CYP1A2 was included. […] The samples were analysed for mebendazole or ethoxycoumarin using LC-MS/MS.

[3] = Stability in human cryopreserved hepatocytes without and with cimetidine or thiabendazole (Example 6); conditions: human, substrate 1 μM; for half-life at 1 μM: t½
[4] = Stability in human cryopreserved hepatocytes without and with cimetidine or furafylline (Example 5); format: in vitro ADME; conditions: human, substrate 1 μM, read-out: t1/2
Description: as §1, §2, §3, §4

[5] = cryopreserved hepatocytes (suspension), no inhibitor
[6] = cryopreserved hepatocytes, with cimetidine 30 μM, cimetidine 30 μM
[7] = cryopreserved hepatocytes, with cimetidine 100 μM, cimetidine 100 μM
[8] = cryopreserved hepatocytes, with cimetidine 300 μM, cimetidine 300 μM
[9] = pH 7.4, with cimetidine 30 μM, plus 30 μM cimetidine
[10] = pH 7.4, with cimetidine 100 μM, plus 100 μM cimetidine
[11] = pH 7.4, with cimetidine 300 μM, plus 300 μM cimetidine

Cc1nc2c([nH]1)c(=O)n(C)c(=O)n2Cc1ccco1 [Furafylline]
inhibition of intrinsic clearance of mebendazole ([1]; human liver microsomes, largest effect over concentrations tested): 99% | decrease of mebendazole metabolism in presence of the inhibitor [2]: 9.1 fold | inhibition of intrinsic clearance of mebendazole [2]: 89%

CCOc1ccc2ccc(=O)oc2c1
hepatocyte CLint at 1 µM [3, 5]: 105 µL/min/1e6 cells | half-life at 1 μM [3, 5]: 0.22 h | hepatocyte CLint at 1 µM ([3]; cryopreserved hepatocytes (suspension), with cimetidine 30 µM, cimetidine 30 μM): 99.9 µL/min/1e6 cells | hepatocyte CLint at 1 µM ([3]; cryopreserved hepatocytes (suspension), with cimetidine 100 µM, cimetidine 100 μM): 88.8 µL/min/1e6 cells | hepatocyte CLint at 1 µM ([3]; cryopreserved hepatocytes (suspension), with cimetidine 300 µM, cimetidine 300 μM): 59.8 µL/min/1e6 cells | hepatocyte CLint at 1 µM ([3]; cryopreserved hepatocytes (suspension), with thiabendazole 10 µM, thiabendazole 10 μM): 8.65 µL/min/1e6 cells | hepatocyte CLint at 1 µM ([3]; cryopreserved hepatocytes (suspension), with thiabendazole 30 µM, thiabendazole 30 μM): 5.35 µL/min/1e6 cells | hepatocyte CLint at 1 µM ([3]; cryopreserved hepatocytes (suspension), with thiabendazole 100 µM, thiabendazole 100 μM): 4.05 µL/min/1e6 cells | half-life at 1 μM [3, 6]: 0.232 h | half-life at 1 μM [3, 7]: 0.26 h | half-life at 1 μM [3, 8]: 0.387 h | half-life at 1 μM ([3]; cryopreserved hepatocytes, with thiabendazole 10 μM, thiabendazole 10 μM): 2.67 h | half-life at 1 μM ([3]; cryopreserved hepatocytes, with thiabendazole 30 μM, thiabendazole 30 μM): 4.32 h | half-life at 1 μM ([3]; cryopreserved hepatocytes, with thiabendazole 100 μM, thiabendazole 100 μM): 5.72 h

CCOc1ccc(NC(C)=O)cc1 [Phenacetin]
half-life at 1 μM [1, 9]: 1.09 h | microsomal CLint at 1 μM [1, 9]: 21.2 µL/min/mg | half-life at 1 μM [1, 10]: 1.32 h | microsomal CLint at 1 μM [1, 10]: 17.6 µL/min/mg | half-life at 1 μM [1, 11]: 1.66 h | microsomal CLint at 1 μM [1, 11]: 13.9 µL/min/mg | microsomal CLint at 1 μM ([1]; pH 7.4, with furafylline 3 μM, plus 3 μM furafylline): 3 to 49 µL/min/mg | microsomal CLint at 1 μM ([1]; pH 7.4, with furafylline 10 μM, plus 10 μM furafylline): 2 to 58 µL/min/mg | microsomal CLint at 1 μM ([1]; pH 7.4, with furafylline 30 μM, plus 30 μM furafylline): 2.71 µL/min/mg | half-life at 1 μM ([1]; pH 7.4, no inhibitor): 1.03 h | microsomal CLint at 1 μM ([1]; pH 7.4, no inhibitor): 22.4 µL/min/mg | CLint ([1]; plus 3 μM furafylline): 3.49 μL/min/mg protein | CLint ([1]; plus 10 μM furafylline): 2.58 μL/min/mg protein | half-life at 1 μM [4, 5]: 0.215 h | half-life at 1 μM [4, 6]: 0.223 h | half-life at 1 μM [4, 7]: 0.262 h | half-life at 1 μM [4, 8]: 0.313 h | half-life at 1 μM ([4]; cryopreserved hepatocytes, with furafylline 3 μM, furafylline 3 μM): 0.993 h | half-life at 1 μM ([4]; cryopreserved hepatocytes, with furafylline 10 μM, furafylline 10 μM): 1.49 h | half-life at 1 μM ([4]; cryopreserved hepatocytes, with furafylline 30 μM, furafylline 30 μM): 1.83 h
